# Laboratory results taken from patent EP4772523A1, “D-PEPTIDE AND USE THEREOF” (HIROSAKI UNIVERSITY, priority 2023, dated 2025).
# Read-outs that look alike come from different tables or passages of the source. *1 amine or outer side, *2 acyl side, *3 side chain or, on linkers, in order; H or OH if unused. Where a SMILES comes first, the peptide text is derived from it. Where no end group is shown, it is not given here. [ ]: non-standard residue; d: D form. The star is where a group is joined. Dolaproine = CO[C@@H]([C@@H]1CCCN1)[C@@H](C)C(=O)O; Hexanoyl(6-maleimido) = O=C1C=CC(=O)N1CCCCCC(=O)*; Dil = CC[C@H](C)[C@H](NC)[C@@H](CC(=O)O)OC; PABC = O=C(OCc1ccc(N[*:1])cc1)[*:2]; X1 = C[C@@H](N*)[C@@H](O)c1ccccc1; Cit = NC(=O)NCCC[C@H](N)C(=O)O; NMeV = CN[C@H](C(=O)O)C(C)C
# What was measured:
# [1] = State of dissolution in physiological saline at dosing concentration; type: physicochemical; settings: dosing solutions: ^10BSH 1.25 mg/25 g mouse, ^10BSH-vc-dhp7 8.25 mg/25 g mouse, IF7-^10BSH 10.08 mg/25 g mouse
# Excerpt: Thus, it was shown that ^10BSH-vc-dhp7 is more soluble and more flexible in designing the dosage form than IF7-^10BSH.
# [2] = molecular target: L-MC16 (L-amino acid MC16 peptide, 15 N-terminal residues of annexin A1) (human or mouse ANXA1 ("such as human ANXA1 or mouse ANXA1")); assay: BLI (Octet K2), biotinylated D-peptide on SSA biosensor, L-MC16 as analyte, 37°C, 1:1 model
# [3] = test system: mouse bladder cancer cells MBT2; assay: Boron neutron capture therapy (BNCT) in mouse bladder cancer model; type: in vivo, C3H/HeN mice
# Method: Since it was found in Example 6 that ^10BSH-dhp7 is taken up into Anxa1-positive cancer cells, boron neutron capture therapy by ^10BSH-dhp7 was attempted in a mouse bladder cancer model.
# Starting from 48 hours after the administration, the tumor area was irradiated with thermal neutrons at 20 MeV 100 mA for 60 minutes using an accelerator manufactured by Sumitomo Heavy Industries (dose: 1.63 × 10^12/cm^2, average 0.23 Gy). One week after the irradiation, second BNCT treatment was performed. 24 hours prior to irradiation with thermal neutrons, 20 mg/kg (0.4 mg/20 g mouse) of ^10BSH-dhp7 was intraperitoneally administered. Irradiation with thermal neutrons was then performed. One week after the second irradiation, mice of each group were sacrificed. The tumor size and the tumor weight were measured, and pathological analysis of the resected tissue was performed to verify the antitumor effect. The tumor volume was measured from the start of administration until sacrifice by the calculation formula: V = long axis × short axis × short axis/2) (FIG. 17).
# MBT2 and PC3-PSMA+ cells = assay: Uptake of ^10BSH in cancer cells by immunofluorescent staining with anti-^10BSH antibody; type: cell-based; settings: 50 µg added, 24 hours; compared with ^10BSH
# Method: Uptake of ^10BSH-dhp7 in cancer cells was examined. 50 µg of ^10BSH-dhp7 or ^10BSH was added to MBT2 and PC3-PSMA+ cells seeded in a 3.5 cm culture dish (ib81156) manufactured by ibidi. 24 hours later, the cells were washed with PBS three times and then fixed with 4% PFA. After blocking with 3% BSA BD PhosFlow perm/wash buffer I (BD557885), 3% BSA BD PhosFlow perm/wash buffer I containing 1 µg/ml of the rabbit anti-^10BSH polyclonal antibody #52 was reacted at room temperature for one hour with ^10BSH taken up into the cells. After washing with PBS three times, it was reacted at room temperature for one hour with an APC-labeled anti-mouse IgG antibody (diluted 1000-fold) to detect the rabbit anti-^10BSH polyclonal antibody, and washed with PBS three times. Then, intracellular uptake of ^10BSH-dhp7 or ^10BSH in each cancer cell was examined by a fluorescence microscope (Keyence BZ9000) (FIG. 16).
# [4] = test system: human head and neck cancer cells SAS; assay: BNCT in ANXA1-positive head and neck cancer model; type: in vivo, nude mice
# Method: (§1) Since it was found in Example 10 that the boron concentration in the tumor tissue by administration of ^10BSH-vc-dhp7 is sufficient for the antitumor effect of neutron capture therapy (BNCT), boron neutron capture therapy by EMCS-^10BSH-vc-dhp7 was attempted in ANXA1-negative human prostate cancer and ANXA 1-positive head and neck cancer models. […] Starting from 24 hours after the administration, the tumor area was irradiated with thermal neutrons at 20 MeV 100 mA for 60 minutes using an accelerator manufactured by Sumitomo Heavy Industries (dose: 1.63 × 10^12/cm^2, average 0.23 Gy). One week after the irradiation, second BNCT treatment was performed.
# (§2) Irradiation with thermal neutrons was then performed. One week after the second irradiation, mice of each group were sacrificed. The tumor size and the tumor weight were measured, and pathological analysis of the resected tissue was performed to verify the antitumor effect. The tumor volume was measured from the start of administration until sacrifice by the calculation formula: V = long axis × short axis × short axis/2) (FIGS. 38 and 39).
# [5] = test system: PC3-PSMA+ and PC3-PSMA- cells; assay: Uptake of ^10BSH in PC3 cells by immunofluorescent staining (Val-Cit conjugate); type: cell-based, human
# Method: (§3) Uptake of ^10BSH-vc-dhp7 in cancer cells was examined. 330 µg of ^10BSH-vc-dhp7, 403.6 µg of […](EMCS-^10BSH)RR (IF7-^10BSH (a compound described in WO2019244954)) (SEQ ID NO: 40 ([…])), or 50 µg of ^10BSH was added to PC3-PSMA+ and PC3-PSMA- cells seeded in a 3.5 cm culture dish (ib81156) manufactured by ibidi. 24 hours later, the cells were washed with PBS three times and then fixed with 4% PFA. Each peptide-boron compound was prepared to have a boron concentration that allows 50 µg of ^10BSH to be finally added. After blocking with 3% BSA BD PhosFlow perm/wash buffer I (BD557885), 3% BSA BD PhosFlow perm/wash buffer I containing 1 µg/ml of the rabbit anti-^10BSH polyclonal antibody #52 was reacted at room temperature for one hour with ^10BSH taken up into the cells. After washing with PBS three times, it was reacted at room temperature for one hour with an APC-labeled anti-mouse IgG antibody (diluted 1000-fold) to detect the rabbit anti-^10BSH polyclonal antibody, and washed with PBS three times. Then, intracellular uptake of […], IF7-^10BSH, or ^10BSH in each cancer cell was examined by a fluorescence microscope (Keyence BZ9000) (FIGS. 27 and 28).
# [6] = test system: PC3, SAS, and MG-63 cells; assay: Uptake of ^10BSH in PC3, SAS and MG-63 cells by immunofluorescent staining; type: cell-based, human; settings: compared with non-addition group
# Method: as §3
# [7] = test system: human prostate cancer cells PC3-PSMA-/ANXA1-; assay: BNCT in ANXA1-negative prostate cancer model; type: in vivo, nude mice; settings: ^10BSH 50 mg/kg or conjugate 330 mg/kg intraperitoneal, two irradiations
# Method: as §1, §2
# [8] = test system: PC3-Luc2-PSMA+/ANXA1-positive cells; assay: Cytotoxicity (Cell Counting Kit-8) to ANXA1-positive PC3 cells; type: cell-based, human
# Method: (§4) The cell viability was analyzed by Cell Counting Kit-8 (Dojindo), and the IC50 value was calculated (FIG. 40).
# [9] = test system: PC3-Luc2-PSMA-/ANXA1-negative cells; assay: Cytotoxicity (Cell Counting Kit-8) to ANXA1-negative PC3 cells; type: cell-based, human; settings: 37°C for 24 hours; cell viability by Cell Counting Kit-8
# Method: as §4
# [10] = test system: PSMA-negative/ANXA1-negative human prostate cancer cells PC3 and PSMA-positive/ANXA1-positive PC3 cells; assay: Anticancer treatment in femur subcutaneous PC3 tumor model; type: in vivo, nude mice; settings: vcMMAE-dhp7 1.25 mg/kg or vcMMAE 0.919 mg/kg intraperitoneal every four days, three courses; femur tumors
# Method: (§5) As control, 0.919 mg/kg (22.975 ng vcMMAE/25 g mouse) of vcMMAE alone (molecular weight: 1316.6) was administered. The tumor size was monitored by measuring the average radiance (photon/sec/cm^2/sr) of the luciferase-expressing tumor after injection of luciferin (150 mg/mouse using an IVIS system. After three courses of administration, the average radiance of the luciferase-expressing tumor and the body weight were evaluated (FIG. 46).
# [11] = test system: PSMA-negative/ANXA1-negative human prostate cancer cells PC3 and PSMA-positive/ANXA1-positive PC3 cells; assay: Anticancer treatment in back subcutaneous PC3 tumor model; type: in vivo, nude mice
# Method: 1 × 10^6 PSMA-negative/ANXA1-negative human prostate cancer cells PC3 were inoculated into the left back of nude mice, and 1 × 10^6 PSMA-positive/ANXA1-positive PC3 cells were inoculated into the right back of the nude mice. […] As control, 0.919 mg/kg (22.975 ng vcMMAE/25 g mouse) of vcMMAE alone (molecular weight: 1316.6) was administered. The tumor size was monitored by measuring the average radiance (photon/sec/cm^2/sr) of the luciferase-expressing tumor after injection of luciferin (150 mg/mouse) using an IVIS system. After three courses of administration, the tumor size, body weight, pathological test, blood biochemical test, and blood cell count test values were evaluated (FIG. 41).
# [12] = test system: PSMA-positive/ANXA1-positive PC3 cells; assay: Anticancer treatment in femur PC3 tumor model at same vcMMAE dose; type: in vivo, mice; settings: four courses; for average radiance of luciferase-expressing tumor: vcMMAE-dhp7 2.14 mg/kg or vcMMAE 1.25 mg/kg intraperitoneal every four days
# Method: as §5, with “2 × 10^6 PSMA-positive/ANXA1-positive PC3 cells were inoculated into the right femur. […] As” for “As”, “1.25” for “0.919”, “(31.25” for “(22.975”, “four” for “three”, “48).” for “46).”
# [13] = test system: human head and neck cancer cells SAS and human osteosarcoma cancer cells MG-63; settings: mouse, in vivo
# [14] = test system: PC3-PSMA-/ANXA1- and PC3-PSMA+/ANXA1+; settings: mouse, in vivo, ip, 28.7 mg/kg
# Excerpt: Further, variation in accumulation depending on the tumor size was examined. […] Tumor accumulation was examined in the same manner as above (FIG. 22).
molecule,measurement,setting,value
"IFLLWQRK(EMCS-^10BSH)RR (EMCS-10BSH boron cluster; C-terminal RR) [IF7-^10BSH, reference compound]",state in physiological saline,[1],poorly soluble and cloudy
biotin-dhp7 (D-amino acid peptide hpnevrs modified with biotin at the N-terminus),Kd,[2],480 nM
biotin-dqy7 (D-amino acid peptide qyatnlk modified with biotin at the N-terminus),Kd,[2],990 nM
"EMCS-^10BSH-hpnevrs (HPNEVRS; not fully specified (some residues, N-terminus); printed as EMCS-^10BSH-hpnevrs) [^10BSH-dhp7]","tumor reduction effect, non-BNCT treatment group","[3]; 20 mg/kg intraperitoneal, no irradiation",no tumor reduction effect was observed
same,"tumor reduction effect, BNCT treatment group","[3]; 20 mg/kg intraperitoneal, two thermal neutron irradiations, one week after the second irradiation",tumors almost completely disappeared
same,residual tumors in pathological analysis of resected tissues,[3]; administration and BNCT treatment group,no residual tumors in four of eight cases
same,intracellular uptake of ^10BSH (fluorescence),MBT2 and PC3-PSMA+ cells,dotted intracellular fluorescence was observed
EMCS-^10BSH-val-cit-hpnevrs ([dH][dP][dN][dE][dV][dR][dS]; not fully specified (N-terminus); printed as EMCS-^10BSH-val-cit-hpnevrs) [^10BSH-vc-dhp7],"tumor growth suppressing effect, BNCT treatment group","[4]; ANXA1-positive head and neck cancer model, 330 mg/kg intraperitoneal, starting immediately after the first BNCT",tumor growth suppressing effect more remarkable than that in the ^10BSH and BNCT treatment group
same,tumor volume compared with ^10BSH and BNCT treatment group,[4]; one week after the second irradiation,reduced tumor volume
same,efficiency of intracellular intake of ^10BSH,"[5]; ANXA1-positive PC3 cells, versus IF7-^10BSH and ^10BSH treatment groups",statistically significantly higher
same,uptake in PSMA-negative cells compared with PSMA-positive cells,[5]; PSMA-negative cells expressing less ANXA1 on the cell surface,took up ^10BSH-vc-dhp7 less than the PSMA-positive cells did
same,intracellular uptake of ^10BSH (fluorescence),"[5]; amount equal to 50 µg of ^10BSH, 24 hours, compared with ^10BSH",more dotted intracellular fluorescence was observed
same,intracellular intake of ^10BSH,[6],statistically significant intracellular intake of ^10BSH in all cells
same,state in physiological saline,[1],in a dissolved state
same,"tumor reduction effect, BNCT treatment group",[7],no tumor reduction effect was observed
c(vcMMAE)-hpnevrs [vcMMAE-dhp7],IC50 value,"[8]; 37°C for 24 hours, cell viability by Cell Counting Kit-8",122.7 ng
same,in-vitro sensitivity of Anxa1-positive cells relative to ANXA1-negative cells,[8]; PC3 cells,twice
same,IC50 value,[9],204.5 ng
same,average radiance of luciferase-expressing tumor,[10],reduced similarly over the three courses of treatment
same,average radiance of luciferase-expressing tumor,"[11]; 1.25 mg/kg intraperitoneal every four days, three courses, back subcutaneous tumors",almost completely reduced
same,appearance and HE staining of resected tumors,[11]; in contrast to vcMMAE alone administration group,marked necrotic change and fewer residual tumors were observed
same,CD31-positive vessel density in the residual tumors,[11]; versus vcMMAE treatment group,statistically significantly reduced
same,resected tumor weights compared with vcMMAE treatment group,[12],markedly smaller
same,average radiance of luciferase-expressing tumor,[12],markedly reduced
biotin-dst7 (D-amino acid peptide stsrntl modified with biotin at the N-terminus),Kd,[2],720 nM
CC[C@H](C)[C@@H]([C@@H](CC(=O)N1CCC[C@H]1[C@H](OC)[C@@H](C)C(=O)N[C@H](C)[C@@H](O)c1ccccc1)OC)N(C)C(=O)[C@@H](NC(=O)[C@H](C(C)C)N(C)C(=O)OCc1ccc(NC(=O)[C@H](CCCNC(N)=O)NC(=O)[C@@H](NC(=O)CCCCCN2C(=O)C=CC2=O)C(C)C)cc1)C(C)C [vcMMAE] ({Hexanoyl(6-maleimido)}-V[Cit][PABC][NMeV]V[Dil][Dolaproine]-X1),in-vitro sensitivity of Anxa1-positive cells relative to ANXA1-negative cells,[8],twice
same,average radiance of luciferase-expressing tumor,[10],tended to increase
same,white blood cell count,"[11]; 0.919 mg/kg, post-treatment",reduced
same,average radiance of luciferase-expressing tumor,[12],tended to increase
c(MI-Cy7.5)-vc-hpnevrs [Cy7.5-vc-dhp7],start of selective accumulation in the tumor tissue,[13],60 min
same,time of maximum tumor accumulation,[13],2 to 24 h
same,tumor accumulation maintained until,[13],96 h
same,start of selective accumulation in the tumor tissue,[14],60 min
same,tumor accumulation maintained until,[14],96 h
